Reference: patent publication US8673966B2, “ALDH-2 inhibitors in the treatment of addiction” (Gilead Sciences, Inc., priority 2011, dated 2014)
pIC50: −log10 of the molar value. Entries after “also recorded” stand apart in the source; their conditions may differ.

Tests used:
[1] = biological target: human mitochondrial aldehyde dehydrogenase (ALDH-2) (Homo sapiens (Human), UniProt P05091); details: U.S. Pat. Nos. 5,624,910 and 6,121,010; cited from earlier work
[2] = tested on: cocaine dependency and relapse; test: Operant cocaine self administration and reinstatement model in rats; details: p.o.
[3] = biological target: recombinant human ALDH2 (Homo sapiens (Human), UniProt P05091); test: ALDH2 assay (NADH formation); assay type: biochemical; details: 10 nM recombinant human ALDH2, 150 uM formaldehyde, 60 min pre-incubation; read-out: IC50 hALDH2
Experimental: Standard ALDH2 reaction mixtures contained 150 uM formaldehyde, 2.5 mM NAD^+, 10 mM MgCl2 and 10 nM recombinant human ALDH2 in 50 mM Hepes buffer, pH 7.4, 0.01% Tween 20 in a final volume of 50 ul using 384-well plates. After 60 min of pre-incubation of compound with ALDH2 and formaldehyde, the reaction was started by adding NAD+ and the reaction mixture was allowed to proceed for 90 minutes. Activity of the enzyme was determined by monitoring NADH formation using Perkin-Elmer Envision Reader with excitation and emission wavelengths set at 340 and 460 nm, respectively.
(§1) Note: IC50 refers to the concentration of a compound that inhibits a reaction by 50%. In the case of competitive inhibition, IC50=2Ki when the substrate is present at the Km concentration, as per the relationship: Ki=IC50/[1+(substrate concentration/Km)].

[4] = biological target: hMAO-B (Homo sapiens (Human), UniProt P27338); test: MAO-B assay (luminogenic MAO substrate); assay type: biochemical; details: microsome contained MAO-B, 16 uM substrate, 20 min pre-incubation; unit inferred
Experimental: (§2) MAO assays included luminogenic MAO substrate, reaction buffers, Luciferin Detection and the reconstitution buffer with esterase. Standard MAO reaction mixtures included microsome contained MAO-A (2 ug) or MAO-B (10 ug), 160 uM substrate for MAO-A or 16 uM substrate for MAO-B, MAO-A buffer (100 mM Hepes buffer, pH 7.5, 5% glycerol) or MAO-B buffer (100 mM Hepes, pH 7.5, 5% glycerol, 10% dimethyl sulfoxide) in a final volume of 30 ul. After 20 minutes of pre-incubation of the enzyme with compounds, the reaction was initiated by adding enzyme substrate and the reaction was allowed to proceed for 60 minutes. Reconstituted Luciferin Detection Reagent (30 ul) was then added is added to simultaneously stop the MAO reaction and convert the methyl ester derivative to luciferin and produce light. The amount of light produced is directly proportional to the activity of MAO. The mixtures were further incubated for 20 minutes and activity of the enzyme was determined using Perkin-Elmer Envision Reader.
as §1

[5] = biological target: hMAO-A (Homo sapiens (Human), UniProt P21397); test: MAO-A assay (luminogenic MAO substrate); assay type: biochemical; details: microsome contained MAO-A, 160 uM substrate, 20 min pre-incubation; unit inferred
Experimental: as §2, §1

[6] = tested on: ethanol intake; details: literature (Keung and Vallee); cited from earlier work

Chain of hMAO-A (P21397 whole entry): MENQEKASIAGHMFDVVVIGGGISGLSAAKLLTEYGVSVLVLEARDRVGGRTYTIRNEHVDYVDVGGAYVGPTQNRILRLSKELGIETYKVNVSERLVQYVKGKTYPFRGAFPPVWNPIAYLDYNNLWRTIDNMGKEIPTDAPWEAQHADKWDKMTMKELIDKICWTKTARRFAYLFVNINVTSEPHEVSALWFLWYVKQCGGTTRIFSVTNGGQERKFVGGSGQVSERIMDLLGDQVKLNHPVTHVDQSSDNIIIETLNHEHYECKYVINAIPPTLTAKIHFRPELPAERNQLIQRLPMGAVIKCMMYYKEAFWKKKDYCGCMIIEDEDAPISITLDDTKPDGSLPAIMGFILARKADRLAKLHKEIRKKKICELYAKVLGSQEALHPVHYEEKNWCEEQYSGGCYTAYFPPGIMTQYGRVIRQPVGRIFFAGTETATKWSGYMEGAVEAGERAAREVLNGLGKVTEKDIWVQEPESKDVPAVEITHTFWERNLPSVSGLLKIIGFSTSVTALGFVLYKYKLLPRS
Chain of recombinant human ALDH2 (P05091 18-517): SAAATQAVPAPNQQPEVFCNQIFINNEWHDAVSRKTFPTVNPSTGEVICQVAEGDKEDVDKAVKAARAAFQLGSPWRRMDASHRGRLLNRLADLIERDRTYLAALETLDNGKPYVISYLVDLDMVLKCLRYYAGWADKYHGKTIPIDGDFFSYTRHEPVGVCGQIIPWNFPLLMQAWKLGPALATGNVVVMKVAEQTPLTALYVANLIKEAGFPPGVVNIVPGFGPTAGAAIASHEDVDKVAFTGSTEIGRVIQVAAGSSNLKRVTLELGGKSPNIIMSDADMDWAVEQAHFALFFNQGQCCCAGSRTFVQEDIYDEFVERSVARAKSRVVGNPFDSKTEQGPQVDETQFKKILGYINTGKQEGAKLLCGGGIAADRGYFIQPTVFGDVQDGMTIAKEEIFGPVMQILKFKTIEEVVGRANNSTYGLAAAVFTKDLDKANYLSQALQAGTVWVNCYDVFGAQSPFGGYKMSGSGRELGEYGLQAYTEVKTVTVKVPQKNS
Chain of hMAO-B (P27338 whole entry): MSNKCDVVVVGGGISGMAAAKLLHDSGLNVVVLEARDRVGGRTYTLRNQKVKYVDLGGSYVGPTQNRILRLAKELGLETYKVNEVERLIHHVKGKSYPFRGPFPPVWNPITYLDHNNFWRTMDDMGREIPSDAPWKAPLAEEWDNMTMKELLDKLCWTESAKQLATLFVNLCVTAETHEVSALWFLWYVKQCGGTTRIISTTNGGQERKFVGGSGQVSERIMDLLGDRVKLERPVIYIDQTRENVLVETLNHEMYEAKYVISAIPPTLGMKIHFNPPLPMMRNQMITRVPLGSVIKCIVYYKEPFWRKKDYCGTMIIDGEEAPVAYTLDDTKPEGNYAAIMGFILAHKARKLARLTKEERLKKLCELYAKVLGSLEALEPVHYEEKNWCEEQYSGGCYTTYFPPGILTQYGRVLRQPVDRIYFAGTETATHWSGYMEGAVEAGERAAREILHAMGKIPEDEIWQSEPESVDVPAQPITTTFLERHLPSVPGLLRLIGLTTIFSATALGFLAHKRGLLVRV
Chain of human mitochondrial aldehyde dehydrogenase (ALDH-2) (P05091 18-517): as the sequence (P05091 18-517) above

Compound	inhibition of ALDH-2 [1]	reduced cocaine dependency, as reduction in the average presses of the active lever ([2]; 2.5 mg/Kg, 2 hour pre-treatment)	reduced cocaine dependency, as reduction in the average presses of the active lever ([2]; 5.0 mg/Kg, 2 hour pre-treatment)	reduced cocaine dependency, as reduction in the average presses of the active lever ([2]; 10.0 mg/kg, 1 hour pre-treatment)	pIC50 [3]	pIC50 [4]	pIC50 [5]	suppressing ethanol intake [6]
O=c1c(-c2ccc(O)cc2)coc2cc(O[C@@H]3O[C@H](CO)[C@@H](O)[C@H](O)[C@H]3O)ccc12 [Daidzin, daidzin]	potent and selective inhibitors	–	–	–	–	–	–	–
CS(=O)(=O)Nc1ccc(-c2coc3cc(C#CC4CN(C(=O)C5CC5)C4)ccc3c2=O)cc1 [N-(4-(7-((1-(cyclopropanecarbonyl)azetidin-3-yl)ethynyl)-4-oxo-4H-chromen-3-yl)phenyl)methanesulfonamide]	–	70%	60%	87%	8.30	< 3.89	< 3.89	–
CC(C)n1cncc1C#Cc1ccc2c(=O)c(-c3ccc(NS(C)(=O)=O)cc3)coc2c1 [N-(4-(7-((1-isopropyl-1H-imidazol-5-yl)ethynyl)-4-oxo-4H-chromen-3-yl)phenyl)methanesulfonamide]	–	–	–	–	8.15	< 3.89	< 3.89	–
Cn1cnc(C#Cc2ccc3c(=O)c(-c4ccc(NS(C)(=O)=O)cc4)coc3c2)c1 [N-(4-(7-((1-methyl-1H-imidazol-4-yl)ethynyl)-4-oxo-4H-chromen-3-yl)phenyl)methanesulfonamide]	–	–	–	–	7.02	< 3.89	< 4.06	–
Cn1cncc1C#Cc1ccc2c(=O)c(-c3ccc(NS(C)(=O)=O)cc3)coc2c1 [N-(4-(7-((1-methyl-1H-imidazol-5-yl)ethynyl)-4-oxo-4H-chromen-3-yl)phenyl)methanesulfonamide]	–	–	–	–	> 8.31	6.44	< 3.89	–
CS(=O)(=O)Nc1ccc(-c2coc3cc(C#CC4CNC4)ccc3c2=O)cc1 [N-(4-(7-(azetidin-3-ylethynyl)-4-oxo-4H-chromen-3-yl)phenyl)methanesulfonamide]	–	–	–	–	6.58	< 4.03	< 3.89	–
CS(=O)(=O)Nc1ccc(-c2coc3cc(C#CC4CC4)ccc3c2=O)cc1 [N-(4-(7-(cyclopropylethynyl)-4-oxo-4H-chromen-3-yl)phenyl)methanesulfonamide]	–	–	–	–	7.24	< 4.89	< 4.89	–
CS(=O)(=O)Nc1ccc(-c2coc3cc(C#CC4CN(C(=O)OC5CCCC5)C4)ccc3c2=O)cc1 [cyclopentyl-3-((3-(4-(methylsulfonamido)phenyl)-4-oxo-4H-chromen-7-yl)ethynyl)azetidine-1-carboxylate]	–	–	–	–	8.05	< 3.89	< 3.89	–
O=c1c(-c2ccc(O)cc2)coc2cc(O)ccc12 [daidzein]	–	–	–	–	–	–	–	effective in suppressing ethanol intake; also recorded: effective in suppressing ethanol uptake
CC(C)(C)OC(=O)NC1(C(=O)N2CC(C#Cc3ccc4c(=O)c(-c5ccc(NS(C)(=O)=O)cc5)coc4c3)C2)CCC1 [tert-butyl 1-(3-((3-(4-(methylsulfonamido)-phenyl)-4-oxo-4H-chromen-7-yl)ethynyl)azetidine-1-carbonyl)-cyclobutylcarbamate]	–	–	–	–	8.22	< 3.89	< 3.89	–
CC(C)(C)OC(=O)NC1(C(=O)N2CC(C#Cc3ccc4c(=O)c(-c5ccc(NS(C)(=O)=O)cc5)coc4c3)C2)CC1 [tert-butyl 1-(3-((3-(4-(methylsulfonamido)phenyl)-4-oxo-4H-chromen-7-yl)ethynyl)azetidine-1-carbonyl)cyclopropylcarbamate]	–	–	–	–	8.30	< 3.89	3.96	–
CC(C)(C)OC(=O)N1CC(C#Cc2ccc3c(=O)c(-c4ccc(NS(C)(=O)=O)cc4)coc3c2)C1 [tert-butyl 3-((3-(4-(methylsulfonamido)phenyl)-4-oxo-4H-chromen-7-yl)ethynyl)azetidine-1-carboxylate]	–	–	–	–	8.05	< 3.89	< 3.89	–
CC(C)(C)OC(=O)N1CCC(C#Cc2ccc3c(=O)c(-c4ccc(NS(C)(=O)=O)cc4)coc3c2)CC1 [tert-butyl 4-((3-(4-(methylsulfonamido)phenyl)-4-oxo-4H-chromen-7-yl)ethynyl)piperidine-1-carboxylate]	–	–	–	–	7.07	< 3.89	< 3.89	–
CN(C(=O)OC(C)(C)C)C1(C(=O)N2CC(C#Cc3ccc4c(=O)c(-c5ccc(NS(C)(=O)=O)cc5)coc4c3)C2)CC1 [tert-butyl (1-(3-((3-(4-(methylsulfonamido)-phenyl)-4-oxo-4H-chromen-7-yl)ethynyl)azetidine-1-carbonyl)cyclopropyl)-methylcarbamate]	–	–	–	–	8.64	< 3.89	< 3.89	–
